Measured values taken from patent US6878388B1, “Vanadium compounds for treating proliferative cell disorders” (Parker Hughes Institute, priority 2000, dated 2005).
Where two headings read alike, the source gives them in different places.

Tests used:
[1] = test system: MDA-MB-231 breast cancer cells; assay: In vitro adhesion assay to ECM proteins, MDA-MB-231; type: cell-based, human; settings: 16 h pretreatment, mean ± SE of 3 experiments
Description: In vitro adhesion assays were used to evaluate the effects of [VO(SO4)(Me2-Phen)2] on the adhesive properties of U87 and MDA-MD-231 cells as described previously (Narla et al., Clin Cancer Res, 4: 2463-2471, 1998). The plates for the adhesion assays were pre-coated with the extracellular matrix (ECM) proteins laminin, fibronectin, vitronectin and type IV collagen (each at a final concentration of 1 μg/ml in PBS) overnight at 4° C. and dried. Exponentially-growing cells (as described in the previous Example) were incubated with [VO(SO4)(Me2-Phen)2] at concentrations ranging from 0.5 μM to 25 μM for 16 hours in a humidified 5% CO2 atmosphere. The cells were then detached from the flasks with 0.05% trypsin (Life Technologies), resuspended in medium, incubated at 37° C. for 2 hours to allow them to recover from the trypsinization stress and examined for their ability to adhere to the plates precoated with ECM proteins. Cells were centrifuged, washed twice with serum-free medium, counted and resuspended in serum-free medium at a final concentration of 2.5×10^5 cells/ml. The cell suspension was added to each well in aliquots of 100 μl and the cells were allowed to adhere for one hour at 37° C. in a humidified 5% CO2atmosphere. The non-adherent cells were removed by gently washing the cells with PBS. The adherent fraction was quantitated using MTT assays as previously described (Narla, Supra).
U87 glioblastoma and MDA-MD-231 breast cancer cells were preincubated with various concentrations of [VO(SO4)(Me2-Phen)2] and processed for adhesion assays. [VO(SO4)(Me2-Phen)2] inhibited adhesion of the U87 and MDA-MB-231 cells to extracellular matrix (ECM) proteins, Pretreatment of cells with [VO(SO4)(Me2-Phen)2] inhibited the adhesion of U87 glioblastoma and MDA-MB-231 breast cancer cells to laminin-, fibronectin-, vitronectin- and collagen-coated plates. The inhibition of glioblastoma cell adhesion was concentration-dependent with mean (±SE) IC50 values from 3 independent experiments shown in the table below.

[2] = test system: U373 glioblastoma cell spheroids; assay: Spheroid migration assay; type: cell-based, human; settings: for inhibition of tumor cell migration from the spheroids / migration distance: U373 spheroids; for migration distance: 48 h (DMSO control 745±29 μm)
Description: Dissociation and migration are the initial steps for infiltration of tumor cells into the surrounding tissue (Pilkington et al., Anticancer Res., 17: 4107-4109, 1997; Giese et al., Neurosurgery, 39: 235-252, 1996; Chintala et al., Front Biosci, 1: d324-39, 1996). Migration of brain tumor cells was monitored using U373 glioblastoma cell spheroids, as described previously (Narla et al., Clin Cancer Res, 4:2463-2471, 1998). Glioblastoma cell spheroids were cultured in 100 mm^2 tissue culture plates precoated with 0.75% agar prepared in MEM supplemented with 10% fetal bovine serum. The cells (5×10^6 cells) were suspended in the medium, seeded onto agar-coated plates and cultured for 5-7 days at 37° C. Spheroids with a diameter of 200-400 μm were selected for use in further experiments. For the migration experiments, the selected spheroids were incubated for 2 hours at 37° C. in serum-free medium containing [VO(SO4)(Me2-Phen)2] in concentrations ranging from 1 μM to 25 μM. The [VO(SO4)(Me2-Phen)2]-treated and vehicle control (DMSO, 0.1%) spheroids were transferred onto fibronectin-coated coverslips (Becton Dickinson, Bedford, Mass.) and placed in 6-well plates containing the same concentrations of [VO(SO4)(Me2-Phen)2] or DMSO in serum-free medium. Spheroids were then kept in a humidified 5CO2 incubator at 37° C. for 48 hours. A total of 4-6 spheroids were used for each concentration. Following the 48 hours incubation period, the spheroids were fixed and stained with Hema-3 solutions and mounted onto glass slides. The distance of tumor cell migration from the spheroid was measured using an ocular micrometer and a transmitted light microscope.
Spheroids measuring 259.2±41.9 μm in diameter were incubated with [VO(SO4)(Me2-Phen)2] or DMSO on fibronectin-coated coverslips. The U373 gioblastoma cells incubated with DMSO rapidly migrated to a distance 745±29 μm away from the spheroid.

## Cc1ccnc2c1ccc1c(C)ccnc12.Cc1ccnc2c1ccc1c(C)ccnc12.O=S(=O)([O-])[O-].[O]=[V+2] [[VO(SO4)(Me2-Phen)2], bis(4,7-dimethyl-1,10-phenanthroline) sulfatooxovanadium (IV)]
[1]; MDA-MB-231, fibronectin-coated plates, read-out: IC50 inhibition of adhesion to fibronectin
  IC50: 1000 nM
[1]; MDA-MB-231, laminin-coated plates, read-out: IC50 inhibition of adhesion to laminin
  IC50: 1000 ± 100 nM
[1]; MDA-MB-231, type IV collagen-coated plates, read-out: IC50 inhibition of adhesion to collagen
  IC50: 1300 nM
[1]; MDA-MB-231, vitronectin-coated plates, read-out: IC50 inhibition of adhesion to vitronectin
  IC50: 1100 ± 100 nM
[2]; 1 μM, 48 h
  inhibition of tumor cell migration from the spheroids: 58.3±7.3%
[2]; 1 μM
  migration distance: 311.1±54.4 μm
[2]; 2 μM, 48 h
  inhibition of tumor cell migration from the spheroids: 71.2±3.4%
[2]; 2 μM
  migration distance: 214.9±25.7 μm
[2]; U373 spheroids on fibronectin-coated coverslips, 48 h, read-out: IC50 inhibition of tumor cell migration
  IC50: 1400 ± 200 nM
